Legend:
Conditions in all cases: 72 h
Caco-2 [1] = assay: relative viability EC50 (midpoint between 100% and the lowest measured viability); higher = less toxic
Vero E6 [2] = assay: as above
HepG2 [3] = assay: as above
U2OS [4] = assay: as above
Calu-3 [5] = assay: as above
Caco-2 [6] = assay: cell viability relative to DMSO; higher = less toxic
Vero E6 [7] = assay: as above
HepG2 [8] = assay: as above
U2OS [9] = assay: as above
Calu-3 [10] = assay: as above
Caco-2 [11] = assay: drug sensitivity score (DSS) for viability; higher = more toxic; extreme values may be limits of the assay
Vero E6 [12] = assay: as above
HepG2 [13] = assay: as above
U2OS [14] = assay: as above
Calu-3 [15] = assay: as above

Compound	relative viability EC50 (Caco-2 [1]) [µM]	relative viability EC50 (Vero E6 [2]) [µM]	relative viability EC50 (HepG2 [3]) [µM]	relative viability EC50 (U2OS [4]) [µM]	relative viability EC50 (Calu-3 [5]) [µM]	cell viability (Caco-2 [6]; 1 nM) [%]	cell viability (Caco-2 [6]; 10 nM) [%]	cell viability (Caco-2 [6]; 100 nM) [%]	cell viability (Caco-2 [6]; 1000 nM) [%]	cell viability (Caco-2 [6]; 10000 nM) [%]	cell viability (Vero E6 [7]; 1 nM) [%]	cell viability (Vero E6 [7]; 10 nM) [%]	cell viability (Vero E6 [7]; 100 nM) [%]	cell viability (Vero E6 [7]; 1000 nM) [%]	cell viability (Vero E6 [7]; 10000 nM) [%]	cell viability (HepG2 [8]; 1 nM) [%]	cell viability (HepG2 [8]; 10 nM) [%]	cell viability (HepG2 [8]; 100 nM) [%]	cell viability (HepG2 [8]; 1000 nM) [%]	cell viability (HepG2 [8]; 10000 nM) [%]	cell viability (U2OS [9]; 1 nM) [%]	cell viability (U2OS [9]; 10 nM) [%]	cell viability (U2OS [9]; 100 nM) [%]	cell viability (U2OS [9]; 1000 nM) [%]	cell viability (U2OS [9]; 10000 nM) [%]	cell viability (Calu-3 [10]; 1 nM) [%]	cell viability (Calu-3 [10]; 10 nM) [%]	cell viability (Calu-3 [10]; 100 nM) [%]	cell viability (Calu-3 [10]; 1000 nM) [%]	cell viability (Calu-3 [10]; 10000 nM) [%]	drug sensitivity score (Caco-2 [11])	drug sensitivity score (Vero E6 [12])	drug sensitivity score (HepG2 [13])	drug sensitivity score (U2OS [14])	drug sensitivity score (Calu-3 [15])
CC(C)Nc1cccnc1N1CCN(C(=O)c2cc3cc(NS(C)(=O)=O)ccc3[nH]2)CC1 [delavirdine]	> 10	> 10	> 10	> 10	> 10	99.4	96.4	101	101	94.2	92.2	99	87.9	95.3	105	98.8	108	99.2	115	107	101	101	102	98.5	102	100	93	104	90.5	105	0	0	0	0	0
Clc1ccc2c(c1)CCc1cccnc1C2=C1CCNCC1 [desloratadine]	> 10	> 10	> 10	> 10	> 10	91.2	93.5	94.7	90.2	102	104	102	104	106	99.9	113	90.7	97.2	110	93.1	100	98.9	97.3	104	95.6	99.9	100	110	104	106	0	0	0	0	0
Cc1onc(-c2c(Cl)cccc2Cl)c1C(=O)N[C@@H]1C(=O)N2[C@@H]1SC(C)(C)[C@@H]2C(=O)O [dicloxacillin]	> 10	> 10	> 10	> 10	> 10	100	99.6	93.3	98.2	101	99.4	97.7	102	94.1	96.3	97.5	98.1	106	100	110	95.6	99.9	93.7	97.9	94.9	98.2	84.7	96	97.6	98.9	0	0	0	0	0
C[C@H]1O[C@@H](O[C@H]2[C@@H](O)C[C@H](O[C@H]3[C@@H](O)C[C@H](O[C@H]4CC[C@@]5(C)[C@H](CC[C@@H]6[C@@H]5C[C@@H](O)[C@]5(C)[C@@H](C7=CC(=O)OC7)CC[C@]65O)C4)O[C@@H]3C)O[C@@H]2C)C[C@H](O)[C@@H]1O [digoxin]	0.114	0.031	0.177	0.182	0.449	97.7	99.5	65.7	21	20.3	95.1	94.9	5.8	1.2	1.3	107	105	72	16.4	8.7	97.3	96.1	82.7	4.6	4.8	101	102	96.4	26.5	12.8	18.9	30.2	18.9	20.1	14
C[N+]1(C)CCC(=C(c2ccccc2)c2ccccc2)CC1 [diphemanil]	> 10	> 10	> 10	> 10	> 10	97.2	100	95.7	101	93.6	105	108	103	99.9	102	113	98.1	108	97.6	110	101	99.7	95.5	97.7	97.4	95.3	107	110	96.1	102	0	0	0	0	0
O=c1c(-c2ccccc2)c1-c1ccccc1 [diphencyprone]	> 10	> 10	> 10	> 10	> 10	110	103	114	106	97.2	101	104	99.6	99.1	93.5	95.2	91.4	95.7	89.8	86	98.9	99.5	103	98	84.2	105	97.6	104	111	122	0	0	0.2	0.5	0
COCCN(C(=O)c1cc(OC)c(OC)c(OC)c1)c1nc(-c2ccccc2)cs1 [eact]	> 10	> 10	> 10	> 10	> 10	103	84.3	96.2	88.9	90.9	94.4	104	90.4	96.6	97.5	107	95.6	104	104	92.5	102	97	100	96.1	106	107	96.2	94.1	92.8	85.1	0.1	0	0	0	0.4

Source: the supplement of paper PMC13380429
